Reference: PMC3308910 (2012)

Legend:
[1] = biological target: cytochrome bc1 complex (ubiquinol:cytochrome c oxidoreductase; respiratory complex III) (Homo sapiens, UniProt P00156); type: biochemical
[2] = biological target: T1, cytochrome bc1 complex (ubiquinol:cytochrome c oxidoreductase; respiratory complex III) (Plasmodium falciparum, UniProt Q02768); type: biochemical
T1 sequence (Q02768 1-376): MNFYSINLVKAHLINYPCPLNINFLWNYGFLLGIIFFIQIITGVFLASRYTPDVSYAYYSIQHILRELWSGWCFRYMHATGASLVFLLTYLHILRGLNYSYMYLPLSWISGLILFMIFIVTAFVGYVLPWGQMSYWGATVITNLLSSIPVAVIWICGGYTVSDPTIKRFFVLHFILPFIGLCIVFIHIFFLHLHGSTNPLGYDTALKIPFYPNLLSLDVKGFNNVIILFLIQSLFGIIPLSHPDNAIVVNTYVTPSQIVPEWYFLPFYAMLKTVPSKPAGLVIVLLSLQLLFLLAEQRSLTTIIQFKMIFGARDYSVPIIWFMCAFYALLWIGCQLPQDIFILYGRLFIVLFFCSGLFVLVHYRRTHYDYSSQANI

Sequence of cytochrome bc1 complex (ubiquinol:cytochrome c oxidoreductase; respiratory complex III) (Homo sapiens, UniProt P00156) (P00156 whole entry, one chain of several): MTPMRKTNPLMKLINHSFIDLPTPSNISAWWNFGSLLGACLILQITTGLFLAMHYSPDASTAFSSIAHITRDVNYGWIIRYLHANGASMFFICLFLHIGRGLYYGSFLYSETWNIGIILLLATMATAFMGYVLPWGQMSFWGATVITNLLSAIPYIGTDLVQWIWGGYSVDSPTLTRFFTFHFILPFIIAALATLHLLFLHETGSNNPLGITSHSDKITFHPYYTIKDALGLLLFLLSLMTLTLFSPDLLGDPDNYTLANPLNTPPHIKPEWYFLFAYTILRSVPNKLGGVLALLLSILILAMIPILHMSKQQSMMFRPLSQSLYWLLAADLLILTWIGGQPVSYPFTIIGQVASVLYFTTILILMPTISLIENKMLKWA

Compound	IC50 [1] [nM]	IC50 [2] [nM]
O=C1C(O)=C([C@H]2CC[C@H](c3ccc(Cl)cc3)CC2)C(=O)c2ccccc21 [Atovaquone]	327 ± 30	–
CCCCCCCCCCOc1cc2c(O)c(C(=O)OCC)cnc2cc1OCC [Decoquinate]	–	2 ± 0.5
